Read-outs that look alike come from different tables or passages of the source.
Assays:
[1] = test system: acute cystitis induced by cyclophosphamide (CYP) in female Sprague-Dawley rats; conditions: for nociceptive scores (CYP-induced visceral pain) / nociceptive threshold (CYP-induced allodynia): 500 mg/kg p.o., 15 min before CYP 150 mg/kg i.p.; for nociceptive scores (CYP-induced visceral pain): vs carrier; for visceral pain induced by the CYP (conclusion): single oral treatment 500 mg/kg
Protocol: Animals: Sprague-Dawley female rats, 7 weeks old as of their birth
Acute Cystitis Induced by CYP: The CYP was injected via intraperitoneal injection at 150 mg/kg in a final volume of 5 ml/kg of saline solution.
The rats were placed in individual Plexiglas boxes with a metal wire mesh floor and allowed to adapt to the chamber for a period of at least 30 minutes prior to the commencement of any testing. Eight von Frey filaments with increasing levels of force viz 1, 2, 4, 6, 8, 10, 15, and 26 g were used. Each calibrated filament was applied 3 times to the lower abdominal area, near the bladder.
• Score 0=no response • Score 1=retraction of the abdomen • Score 2=stamping or changing of position • Score 3=wheezing or squealing, or abdominal curvature, or licking of the site stimulated with von Frey filaments
For each rat, the results were expressed as follows: • Nociceptive threshold: first von Frey force level for which the stimulus is perceived as being painful (the score ≥1 is obtained)=>lowered threshold=allodynia • Nociceptive score: % of the maximum response (total=9 for 3 combined applications) for each filament=>Overall response to pain
Experimental Groups (6 Rats Per Group): • Group 1: Carrier (5 ml/kg)+CYP • Group 2: NMN (500 mg/kg)+CYP • Group 3: Compound A (500 mg/kg)+CYP • Group 4: Compound B (500 mg/kg)+CYP

[2] = test system: cyclophosphamide-induced cystitis (visceral nociceptive pain) in female Sprague-Dawley rats; assay: Visceral pain model of cyclophosphamide-induced cystitis in rats, von Frey filaments (Example 1); assay type: in vivo, rat; conditions: for nociceptive threshold (threshold of tolerance to pain, allodynia): CYP-treated rats; for nociceptive threshold (threshold of tolerance to pain, allodynia) / nociceptive score: NMN 500 mg/kg or ibuprofen 300 mg/kg oral
Protocol: The effectiveness of the use of NMN according to the invention was evaluated in rats in a model of nociceptive pain. More precisely, the model used is a visceral pain model. The administration of cyclophosphamide (CYP) serves as the means to simulate cystitis in rats.
The positive control is ibuprofen, a non-steroidal anti-inflammatory drug frequently prescribed to relieve nociceptive pain. The negative control is the carrier for NMN and ibuprofen, that is to say, distilled water.
For this study, 7-week-old female Sprague-Dawley rats were divided into three groups, each group comprising of 6 rats: • a control group who received 5 ml of distilled water (carrier); • a group treated with NMN at 500 mg/kg; and • a group treated with ibuprofen at 300 mg/kg.
The NMN is in the form of zwitterion.
After 24 hours of adaptation, a test to measure the threshold of pain tolerance of each animal was carried out with von Frey filaments prior to the start of the study. This measurement prior to any exposure to a painful stimulus makes it possible to obtain the baseline pain tolerance threshold level in the animals and serves as a negative control.
Von Frey filaments are used as a device for measuring the sensitivity of the skin to touch. The use of von Frey filaments makes it possible to test for allodynia and hyperalgesia in rodents. Briefly put, each filament corresponds to a given force. The filaments are applied in ascending order of increasing force to the animal's skin. The rodents in effect have a reflex to withdraw when an unexpected contact occurs. The withdrawal in response to a force exerted on the rodent is indicative of the animal's threshold of tolerance to pain. The use of von Frey filaments is commonly implemented for measurement of pain in rodents (Deuis J R, Dvorakova L S and Vetter I (2017) Methods Used to Evaluate Pain Behaviors in Rodents. Front. Mol. Neurosci. 10:284.).
In the present study, eight filaments in ascending order of increasing force, of 1 g, 2 g, 4 g, 6 g, 8 g, 10 g, 15 g, and 26 g, were used and applied three times each to the animal's abdomen, near the bladder. The animal's response was assessed as follows: • score 0: no response • score 1: retraction of the abdomen • score 2: stamping or changing of position of the animal • score 3: twitching, or curving or rounding of the abdomen, or licking of the area stimulated by the von Frey filament.
For each rat, the results are expressed as follows: • nociceptive threshold: first force level at which a response from the animal is observed (response score greater than or equal to 1). This indicates the lowest threshold of tolerance to pain for measuring allodynia; • nociceptive score: percentage of the maximum response for each filament. This indicates the overall pain response.
The animals of each of the groups receive either the carrier, or NMN at 500 mg/kg, or ibuprofen at 300 mg/kg administered via the oral route. After administration of the compounds to be tested (carrier, NMN, or ibuprofen), cyclophosphamide is injected via the intraperitoneal route into each rat. The cyclophosphamide induces strong inflammation in the bladder and simulates a pain induced by a urinary tract infection such as cystitis.
The test with the von Frey filaments is repeated at 2 hr and then subsequently at 4 hr after injection of the cyclophosphamide in order to measure the pain response of the animals.
The results were analysed by a one-way analysis of variance (ie one-way ANOVA) test supplemented by a Dunnett's test or by a two-way ANOVA analysis. With regard to statistical significance, * signifies that p<0.05, ** signifies that p<0.01, and *** signifies that p<0.001, as compared to the group treated with the carrier.

[3] = T=2 h after CYP injection, vs carrier (FIG. 3B)
[4] = T=4 h after CYP injection, vs carrier (FIG. 3C)

NC(=O)c1ccc[n+]([C@H]2O[C@H](COP(=O)([O-])O)[C@@H](O)[C@H]2O)c1 [Compound A, alpha nicotinamide mononucleotide]
nociceptive scores (CYP-induced visceral pain) ([1]; +2 hr): decrease in the nociceptive scores | nociceptive threshold (CYP-induced allodynia) ([1]; +2 hr, vs carrier (FIG. 6A)): increase in the nociceptive threshold | nociceptive scores (CYP-induced visceral pain) ([1]; +4 hr): only achieved the level of statistical significance at +4 h | nociceptive threshold (CYP-induced allodynia) ([1]; +4 hr, vs carrier (FIG. 6B)): significant at +4 hr | visceral pain induced by the CYP (conclusion) ([1]; +2 hr): reduced the visceral pain | visceral pain induced by the CYP (conclusion) ([1]; +4 hr): only achieving the level of significance at +4 hr

NC(=O)c1ccc[n+]([C@@H]2O[C@H](COP(=O)([O-])O)[C@@H](O)[C@H]2O)c1 [NMN, nicotinamide mononucleotide]
nociceptive threshold (threshold of tolerance to pain, allodynia) ([2]; T0, vs carrier (FIG. 3A)): increase the response threshold to nociceptive pain significantly | nociceptive threshold (threshold of tolerance to pain, allodynia) [2, 3]: increase the response threshold to nociceptive pain significantly | nociceptive threshold (threshold of tolerance to pain, allodynia) [2, 4]: increase the response threshold to nociceptive pain significantly | nociceptive score ([2]; 2 hours after CYP (FIG. 4B)): reducing the nociceptive score | nociceptive score ([2]; 4 hours after CYP (FIG. 4C)): reducing the nociceptive score | nociceptive scores (CYP-induced visceral pain) ([1]; +2 hr): significant decrease in the nociceptive scores | nociceptive threshold (CYP-induced allodynia) ([1]; +2 hr, vs carrier (FIG. 6A)): slight increase in the nociceptive threshold | nociceptive scores (CYP-induced visceral pain) ([1]; +4 hr): significant decrease in the nociceptive scores | nociceptive threshold (CYP-induced allodynia) ([1]; +4 hr, vs carrier (FIG. 6B)): slight increase in the nociceptive threshold | visceral pain induced by the CYP (conclusion) ([1]; +2 hr): relieved the visceral pain | visceral pain induced by the CYP (conclusion) ([1]; +4 hr): relieved the visceral pain

O=P1(N(CCCl)CCCl)NCCCO1 (stereo not shown) [cyclophosphamide, reference compound]
pain tolerance threshold (nociceptive threshold) after cyclophosphamide ([2]; carrier-treated rats, intraperitoneal cyclophosphamide, 10 g before administration (FIG. 1B)): 3 g | nociceptive threshold after CYP vs baseline response ([1]; CYP 150 mg/kg i.p., carrier-treated group, 2 hours and 4 hours post injection (FIG. 2A)): significant decrease in the nociceptive threshold | nociceptive scores after CYP vs baseline response ([1]; CYP 150 mg/kg i.p., carrier-treated group, 2 hours and 4 hours post injection (FIG. 2B)): significant increase in the nociceptive scores

CC(C)Cc1ccc(C(C)C(=O)O)cc1 (stereo not shown) [ibuprofen]
nociceptive threshold (threshold of tolerance to pain, allodynia) ([2]; T0, vs carrier (FIG. 3A)): significantly increase the threshold of tolerance to pain | nociceptive threshold (threshold of tolerance to pain, allodynia) [2, 3]: significantly increase the threshold of tolerance to pain | nociceptive threshold (threshold of tolerance to pain, allodynia) [2, 4]: significantly increase the threshold of tolerance to pain | nociceptive score ([2]; 2 hours after CYP (FIG. 4B)): reducing the nociceptive score | nociceptive score ([2]; 4 hours after CYP (FIG. 4C)): reducing the nociceptive score

di-NMN [Compound B]
nociceptive scores (CYP-induced visceral pain) ([1]; +2 hr): no effect was observed | nociceptive threshold (CYP-induced allodynia) ([1]; +2 hr, vs carrier (FIG. 6A)): no effect | nociceptive scores (CYP-induced visceral pain) ([1]; +4 hr): significant decrease in the nociceptive scores | nociceptive threshold (CYP-induced allodynia) ([1]; +4 hr, vs carrier (FIG. 6B)): significant increase in the nociceptive threshold | visceral pain induced by the CYP (conclusion) ([1]; +2 hr): no beneficial effect | visceral pain induced by the CYP (conclusion) ([1]; +4 hr): significant anti-nociceptive activity
